Columns and labels:
[1] = target: T1, Kinesin-like protein KIF18A (Homo sapiens, UniProt Q8NI77); assay: Inhibition of recombinant His-tagged human KIF18A (1 to 467 residues) expressed in Trichoplusia ni insect cells assessed as inhibition of microtubule-stimulated ATPase activity preincubated for 30 mins followed by ATP addition and further incubated for 15 mins by ADP-Glo reagent based assay; parameters: species or system Insect cell
T1 sequence (Q8NI77 whole entry): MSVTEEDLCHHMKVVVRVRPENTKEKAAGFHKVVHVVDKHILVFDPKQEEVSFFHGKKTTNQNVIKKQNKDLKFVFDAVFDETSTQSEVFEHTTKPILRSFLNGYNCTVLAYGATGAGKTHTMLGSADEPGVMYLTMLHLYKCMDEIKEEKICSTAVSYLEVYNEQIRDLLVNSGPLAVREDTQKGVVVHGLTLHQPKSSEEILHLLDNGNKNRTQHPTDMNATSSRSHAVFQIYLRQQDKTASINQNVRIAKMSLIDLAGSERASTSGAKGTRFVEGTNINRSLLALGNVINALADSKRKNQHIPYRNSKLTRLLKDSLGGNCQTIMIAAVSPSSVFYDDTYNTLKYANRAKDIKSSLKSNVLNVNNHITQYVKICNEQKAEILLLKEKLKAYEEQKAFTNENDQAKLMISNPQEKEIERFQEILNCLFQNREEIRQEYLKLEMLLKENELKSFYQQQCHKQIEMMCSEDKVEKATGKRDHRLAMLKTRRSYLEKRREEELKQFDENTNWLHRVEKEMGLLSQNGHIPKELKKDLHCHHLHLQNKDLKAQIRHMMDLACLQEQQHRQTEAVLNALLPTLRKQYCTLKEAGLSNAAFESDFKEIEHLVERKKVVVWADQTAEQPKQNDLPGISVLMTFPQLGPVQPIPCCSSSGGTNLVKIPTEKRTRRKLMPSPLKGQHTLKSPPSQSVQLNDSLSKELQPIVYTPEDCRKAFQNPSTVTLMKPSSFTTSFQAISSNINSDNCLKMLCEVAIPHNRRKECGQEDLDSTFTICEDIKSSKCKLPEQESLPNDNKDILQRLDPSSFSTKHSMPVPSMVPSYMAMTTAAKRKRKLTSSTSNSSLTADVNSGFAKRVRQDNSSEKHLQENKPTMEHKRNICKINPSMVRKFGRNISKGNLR

[2] = Unbound fraction in CD-1 mouse plasma xenografted with human OVCAR-3 cells at 100 mg/kg, ip by LC-MS/MS analysis; assay type: ADME, organism-based
[3] = Metabolic stability in mouse liver microsomes assessed as intrinsic clearance at 0.5 uM incubated upto 40 mins by LCMS analysis; assay type: ADME, Microsome; settings: read-out: CLH
[4] = AUC (0 to 24 hrs) in CD-1 mouse xenografted with human OVCAR-3 cells at 100 mg/kg, ip by LC-MS/MS analysis; assay type: ADME, organism-based; parameters: dose 100 mg/kg, route ip; settings: in vivo
OVCAR-3 [5] = assay: Antiproliferative activity against human OVCAR-3 cells by nuclear count assay; assay type: functional, cell-based
[6] = Plasma concentration in CD-1 mouse xenografted with human OVCAR-3 cells at 100 mg/kg, ip measured upto 24 hrs by LC-MS/MS analysis; assay type: ADME, organism-based
[7] = Metabolic stability in human liver microsomes assessed as intrinsic clearance at 0.5 uM incubated upto 40 mins by LCMS analysis; assay type: ADME, Microsome; settings: read-out: CLH
[8] = Cmax in CD-1 mouse xenografted with human OVCAR-3 cells at 100 mg/kg, ip by LC-MS/MS analysis; assay type: ADME, organism-based; parameters: dose 100 mg/kg, route ip; settings: in vivo
OVCAR-3 [9] = assay: Induction of mitotic arrest in human OVCAR-3 cells assessed as p-histone H3 incubated for 24 hrs by mitotic - imaging assay; assay type: functional, cell-based; settings: OVCAR-3, 24 h
OVCAR-3 [10] = assay: Antimitotic activity in human OVCAR-3 cells xenografted in CD-1 mouse assessed as fold increase in mitotic cells in tumor at 100 mg/kg, po measured after 24 hrs relative to control; assay type: functional
[11] = Drug metabolism in mouse liver microsomes assessed as mono-hyoxylate metabolite formation in presence of NADPH by LC-MS/MS analysis; assay type: ADME, Microsome
[12] = Drug metabolism in mouse liver microsomes assessed as di-hydroxylate metabolite formation in presence of NADPH by LC-MS/MS analysis; assay type: ADME, Microsome
Tubulin = assay: Binding affinity to microtubule (unknown origin) by NMR based assay; assay type: protein-complex assay, Homo sapiens
[13] = target: T1, Kinesin-like protein KIF18A; assay: Binding affinity to KIF18A (unknown origin) by NMR based assay
[14] = Binding affinity to KIF18A- MT complex (unknown origin) by NMR based assay; parameters: species or system Homo sapiens
[15] = target: T1, Kinesin-like protein KIF18A; assay: Inhibition of KIF18A ATPase activity (unknown origin)

Row | SMILES | IC50 [1] | microsomal CLint at 0.5 µM [3] | EC50 (OVCAR-3 [5]) | microsomal CLint at 0.5 µM [7] | EC50 (OVCAR-3 [9]) | further results
1 | CC(C)(C)NS(=O)(=O)c1cccc(NC(=O)c2ccc(NS(C)(=O)=O)cc2N2CCC3(CC2)CC3)c1 | 28 nM | 81 µL/min/mg | 16 nM | 79 µL/min/mg | 16 nM | fraction unbound [2]: 0.007; AUC(0-t) [4]: 147 µM·h; concentration at 24 h [6]: 2.9 µM; Cmax [8]: 12.6 µM
2 | CC[C@@H]1C(=O)N(C)c2cnc(Nc3ccc(C(=O)NC4CCN(C)CC4)cc3OC)nc2N1C1CCCC1 [BI-2536] |  |  |  |  |  | fold change (FC) (OVCAR-3 [10]): >3
3 | O=C(Nc1cccc(S(=O)(=O)C2CCCC2)c1)c1cccnc1N1CCC2(CC1)CC2 | 410 nM | > 399 µL/min/mg | 1240 nM | > 399 µL/min/mg | 1870 nM | Drug metabolism [11]: Metabolite_Detected; Drug metabolism [12]: Metabolite_Detected
4 | C[C@H](NS(=O)(=O)c1cccc(NC(=O)c2ccc(NC(CO)CO)nc2N2CCC3(CC2)CC3)c1)C(F)(F)F | 90 nM |  |  |  |  | Kd (Tubulin): 25000 nM; Kd [13]: > 50000 nM; Kd [14]: 150 nM; IC50 [15]: 32000 nM

Source: ChEMBL document CHEMBL5223091, “Targeting the Mitotic Kinesin KIF18A in Chromosomally Unstable Cancers: Hit Optimization Toward an In Vivo Chemical Probe” (J Med Chem, 2022)
